Laboratory results reported in the supplement of paper PMC10307832.

Columns and labels:
Test in all cases: relative viability (nuclei count vs DMSO), 5 days (fraction); higher = more cells survive
Pazopanib + Pemetrexed = compound: Cc1ccc(Nc2nccc(N(C)c3ccc4c(C)n(C)nc4c3)n2)cc1S(N)(=O)=O [Pazopanib] + Nc1nc2[nH]cc(CCc3ccc(C(=O)N[C@@H](CCC(=O)O)C(=O)O)cc3)c2c(=O)[nH]1 [Pemetrexed] (partner 0.2 µM)
How it was run: (§1)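 Dosing by pin tool came one day after lung cancer cell lines were seeded in 1536-well plates, using either one drug or a fixed anchor-drug dose plus five library-drug doses (not always all listed) in √10 steps. After 5 days, nuclei were counted on 4× images. Relative viability is treated-well nuclei count divided by vehicle-well nuclei count, and values are medians of duplicate plates.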

Pazopanib + Pictilisib = compound: Cc1ccc(Nc2nccc(N(C)c3ccc4c(C)n(C)nc4c3)n2)cc1S(N)(=O)=O [Pazopanib] + CS(=O)(=O)N1CCN(Cc2cc3nc(-c4cccc5[nH]ncc45)nc(N4CCOCC4)c3s2)CC1 [Pictilisib] (partner 1 µM)
How it was run: as §1

Ponatinib + Alpelisib = compound: Cc1ccc(C(=O)Nc2ccc(CN3CCN(C)CC3)c(C(F)(F)F)c2)cc1C#Cc1cnc2cccnn12 [Ponatinib] + Cc1nc(NC(=O)N2CCC[C@H]2C(N)=O)sc1-c1ccnc(C(C)(C)C(F)(F)F)c1 [Alpelisib] (partner 2 µM)
How it was run: as §1

Ponatinib + Palbociclib = compound: Cc1ccc(C(=O)Nc2ccc(CN3CCN(C)CC3)c(C(F)(F)F)c2)cc1C#Cc1cnc2cccnn12 [Ponatinib] + CC(=O)c1c(C)c2cnc(Nc3ccc(N4CCNCC4)cn3)nc2n(C2CCCC2)c1=O [Palbociclib] (partner 0.5 µM)
How it was run: as §1

Row | Cell Line | relative viability (Pazopanib + Pemetrexed; first compound 0.01 µM) | relative viability (Pazopanib + Pemetrexed; first compound 0.03162 µM) | relative viability (Pazopanib + Pemetrexed; first compound 0.1 µM) | relative viability (Pazopanib + Pemetrexed; first compound 0.3162 µM) | relative viability (Pazopanib + Pemetrexed; first compound 1 µM) | relative viability (Pazopanib + Pictilisib; first compound 0.01 µM) | relative viability (Pazopanib + Pictilisib; first compound 0.03162 µM) | relative viability (Pazopanib + Pictilisib; first compound 0.1 µM) | relative viability (Pazopanib + Pictilisib; first compound 0.3162 µM) | relative viability (Pazopanib + Pictilisib; first compound 1 µM) | relative viability (Ponatinib + Alpelisib; first compound 0.002 µM) | relative viability (Ponatinib + Alpelisib; first compound 0.006325 µM) | relative viability (Ponatinib + Alpelisib; first compound 0.06325 µM) | relative viability (Ponatinib + Alpelisib; first compound 0.2 µM) | relative viability (Ponatinib + Palbociclib; first compound 0.002 µM) | relative viability (Ponatinib + Palbociclib; first compound 0.006325 µM) | relative viability (Ponatinib + Palbociclib; first compound 0.06325 µM) | relative viability (Ponatinib + Palbociclib; first compound 0.2 µM)
1 | NCI-H838 | 0.272 | 0.231 | 0.265 | 0.252 | 0.227 | 0.382 | 0.476 | 0.497 | 0.564 | 0.589 | 1.01 | 0.982 | 1.13 | 0.812 | 0.216 | 0.234 | 0.219 | 0.21
2 | NCI-H2087 | 0.61 | 0.65 | 0.637 | 0.59 | 0.657 | 0.784 | 0.951 | 0.85 | 0.963 | 1.01 | 0.812 | 0.84 | 0.932 | 0.879 | 0.259 | 0.25 | 0.259 | 0.329
3 | BEN | 0.67 | 0.803 | 0.706 | 0.8 | 0.834 | 0.514 | 0.621 | 0.515 | 0.567 | 0.488 | 0.948 | 0.977 | 1.08 | 0.916 | 0.453 | 0.528 | 0.469 | 0.47
4 | LCLC-103H | 0.447 | 0.477 | 0.399 | 0.494 | 0.491 | 0.531 | 0.575 | 0.635 | 0.764 | 0.588 | 0.89 | 0.969 | 1.07 | 1.03 | 0.464 | 0.517 | 0.491 | 0.431
5 | EKVX | 0.37 | 0.403 | 0.377 | 0.35 | 0.361 | 0.411 | 0.402 | 0.415 | 0.507 | 0.517 | 0.805 | 0.936 | 1.15 | 0.898 | 0.382 | 0.419 | 0.458 | 0.438
6 | LXF-289 | 1.01 | 0.899 | 0.904 | 0.845 | 0.848 | 0.701 | 0.784 | 0.778 | 0.735 | 0.822 | 1.05 | 1.02 | 1.04 | 1.08 | 0.606 | 0.613 | 0.6 | 0.611
7 | NCI-H661 | 0.863 | 0.938 | 0.969 | 0.955 | 0.861 | 0.353 | 0.417 | 0.366 | 0.376 | 0.446 | 0.562 | 0.79 | 0.733 | 0.506 | 0.412 | 0.412 | 0.434 | 0.416
8 | NCI-H2085 | 0.816 | 1.09 | 0.804 | 0.949 | 1.03 | 0.413 | 0.463 | 0.47 | 0.429 | 0.443 | 0.881 | 1.01 | 1.07 | 0.959 | 0.466 | 0.458 | 0.509 | 0.509
9 | NCI-H1944 | 0.562 | 0.635 | 0.67 | 0.724 | 0.603 | 0.303 | 0.346 | 0.344 | 0.39 | 0.358 | 0.824 | 0.943 | 1.1 | 0.954 | 0.331 | 0.392 | 0.435 | 0.338
10 | LC-2-ad | 0.292 | 0.281 | 0.274 | 0.311 | 0.275 | 0.412 | 0.436 | 0.515 | 0.196 | 0.527 | 0.832 | 0.792 | 0.648 | 0.552 | 0.474 | 0.448 | 0.359 | 0.347
11 | COR-L 105 | 1.07 | 1.24 | 1.19 | 1.21 | 1.21 | 0.4 | 0.473 | 0.411 | 0.443 | 0.417 | 0.976 | 0.846 | 1.31 | 0.935 | 0.351 | 0.4 | 0.404 | 0.447
12 | NCI-H1355 | 0.84 | 1.02 | 1.1 | 1.02 | 1.08 | – | 0.412 | 0.421 | 0.508 | 0.638 | 0.832 | 0.87 | 1.01 | 0.917 | 0.43 | 0.432 | 0.492 | 0.439
13 | H3255 | 0.549 | 0.585 | 0.581 | 0.569 | 0.583 | 0.452 | 0.454 | 0.427 | 0.417 | 0.582 | 0.641 | 0.697 | 0.743 | 0.688 | 0.325 | 0.312 | 0.297 | 0.297
14 | NCI-H1993 | – | 0.588 | 0.639 | 0.549 | 0.554 | 0.8 | 0.828 | 0.709 | 0.801 | 0.789 | 0.63 | 0.793 | 0.71 | 0.688 | 0.557 | 0.613 | 0.779 | 0.771
15 | NCI-H1734 | 0.435 | 0.396 | 0.468 | 0.436 | 0.432 | 0.385 | 0.448 | 0.437 | 0.53 | 0.461 | 0.594 | 0.721 | 0.741 | 0.614 | 0.34 | 0.358 | 0.347 | 0.284
16 | HOP-62 | 0.366 | 0.36 | 0.339 | 0.3 | 0.224 | 0.479 | 0.768 | – | 0.874 | 0.874 | 0.782 | 0.871 | 0.652 | 0.718 | 0.378 | 0.374 | 0.334 | 0.376
